Laboratory results reported in PubChem BioAssay (NCI).
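Cells were grown in 96-well plates and exposed to each compound for 48 hours at five concentrations; endpoints were interpolated linearly between bracketing concentrations, or set to the highest concentration if not reached. Here, GI50 denotes the concentration required for 50% inhibition of growth. TGI: total growth inhibition.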

Legend:
Experiment in all cases: inhibition of tumour cell growth, NCI panel, 48 h
[1] = tested on: A549 NSCLC
[2] = tested on: DMS 273 small cell lung
[3] = tested on: KM20L2 colon
[4] = tested on: OVCAR-8 ovarian
[5] = tested on: SF-295 CNS
[6] = tested on: SK-MEL-2 melanoma
[7] = tested on: A498 renal
[8] = tested on: XF 498 CNS

Structure (SMILES) | GI50 [1] [µM] | TGI [1] [µM] | GI50 [2] [µM] | TGI [2] [µM] | GI50 [3] [µM] | TGI [3] [µM] | GI50 [4] [µM] | TGI [4] [µM] | GI50 [5] [µM] | TGI [5] [µM] | GI50 [6] [µM] | TGI [6] [µM] | TGI [7] [µM] | TGI [8] [µM]
N.N.N.N.N.O=C([O-])c1nn[n-]n1.[Cl-].[Co+3] | > 100 | > 100 | > 100 | > 100 | > 100 | > 100 | > 100 | > 100 | > 100 | > 100 | > 100 | > 100 |  | 
CC(C)(C)OC(=O)Cc1ccc2c(ccn2Cc2ccccc2)c1 |  | > 100 |  | > 100 |  | 77.2 |  | > 100 |  | > 100 |  | > 100 | > 100 | 
COC(=O)C1=NC(=S)NC(c2ccccc2)C1c1nc2ccccc2s1 (stereo unspecified) |  | > 100 |  | > 100 |  | > 100 |  | > 100 |  | > 100 |  | > 100 | > 100 | 
COc1ccc(-c2cn3ccsc3n2)cc1 |  | > 100 |  | > 100 |  | > 100 |  | > 100 |  | > 100 |  | > 100 |  | 
Cc1ccc(N(C(=O)CC(=O)NN)C(=O)c2ccccc2Cl)cc1 |  | > 100 |  | > 100 |  | > 100 |  | > 100 |  | > 100 |  |  | > 100 | > 100
CC(C)=CCC/C(=C/CC/C(C)=C/CCc1ccoc1)C(=O)O |  | > 100 |  |  |  | > 100 |  | > 100 |  | > 100 |  | > 100 | > 100 | > 100
Cc1noc(C)c1CCCOC1COc2ccccc2OCCOCCOc2ccccc2OC1 |  | > 100 |  | > 100 |  | > 100 |  | > 100 |  | > 100 |  | > 100 | > 100 | > 100
COC(=O)c1cc(Br)c(Br)n1C |  | > 100 |  | > 100 |  | > 100 |  | > 100 |  | > 100 |  |  | > 100 | > 100
CC(=O)[CH-]C(=O)c1ccccc1.CC(=O)[CH-]C(=O)c1ccccc1.O=C([O-])c1ccc([O-])cc1.O=C([O-])c1ccc([O-])cc1.[Ti+4] | 69.1 | > 100 |  |  | 51.1 | > 100 | 46.5 | > 100 | 41.6 | > 100 | 36.9 | > 100 |  | 
CN(C)P(=O)(/C(N)=N/Nc1ccc([N+](=O)[O-])cc1)N(C)C |  | > 100 |  | > 100 |  | > 100 |  | > 100 |  |  |  | > 100 |  | > 100
CCOC(=O)CN=c1nc(SC)sc2c(C(=O)OCC)nc(Sc3ccccc3)n12 |  |  |  |  |  | > 100 |  | > 100 |  |  |  | > 100 |  | > 100
CCOC1=NC(=O)CC(c2ccccc2)S1 (stereo unspecified) |  | > 100 |  | > 100 |  | > 100 |  | > 100 |  | > 100 |  | > 100 | > 100 | > 100
O=C(O)CP(=S)(S)c1ccccc1 (stereo unspecified) |  | > 100 |  | > 100 |  |  |  | > 100 |  | > 100 |  | > 100 | > 100 | > 100
Cc1ccc(S(=O)(=O)n2c(-c3ccccc3)c(-c3ccccc3)c3ccccc32)cc1 |  | > 100 |  | > 100 |  | > 100 |  | > 100 |  | > 100 |  | > 100 |  | > 100
Cc1cccc(NC(=O)C(=O)Cc2nc3ccccc3[nH]c2=O)c1C |  | > 100 |  |  |  | > 100 |  | > 100 |  | > 100 |  |  | > 100 | > 100
Cc1ccc(Nc2nc3c(s2)C(=O)c2ccccc2C3=O)c(C)c1 |  | 37.6 |  | 43.7 |  | > 100 |  | 35.2 |  | 29.4 |  | 28.2 | > 100 | 36.2
Nc1ccc(/C=C/c2ccnc3ccccc23)cc1 |  | 71.4 |  | 48.9 |  | 46.6 |  | 88.2 |  | 46.1 |  | 37.6 |  | 
COC(=O)c1cccc2cccc(C(=O)Nc3ccc(C)cc3C)c12 |  | > 100 |  | > 100 |  | > 100 |  | > 100 |  | > 100 |  | > 100 | > 100 | > 100
Cn1cc(C(=O)c2ccccc2)ccc1=O |  | > 100 |  | > 100 |  | > 100 |  | > 100 |  | > 100 |  | > 100 |  | > 100
COc1cc(OC(=O)c2c(O)cc(O)c(O)c2C)cc(C)c1C(=O)Oc1cc(C)c(C(=O)O)c(O)c1 |  | > 100 |  | > 100 |  | > 100 |  | > 100 |  | > 100 |  | > 100 | > 100 | > 100
